Data taken from a melting point compilation (Tetko et al.; mined from patent text by program, amines drawn as free bases though some values may be those of a salt).

| melting point [°C] | SMILES |
| --- | --- |
| 108 to 110 | COC(=O)c1ccc2c(CBr)csc2c1 |
| 228 to 230 | O=C(CCN1CCOCC1)NCc1ccc2c(c1)-c1[nH]nc(-c3ccsc3)c1C2 |
| 123 to 124 | CSCCNC(=O)c1cccc(-c2cccc(Oc3cc(Cl)cc(Cl)c3)n2)c1 |
| 210 to 211 | CCOC(=O)CCC(=O)c1cnc2c(OC)cccc2c1Nc1ccccc1C |
| 185 | C=Cc1ccc(-n2cc(C)c(=O)[nH]c2=O)cc1 |
| 234 to 237 | CCCc1nc2c(N)nc3ccccc3c2n1CC1(C(N)=O)CCC1 |
| 214 to 217 | Cc1cnn(-c2ncc(C(=O)N3Cc4cccn4Cc4ccccc43)c(C(F)(F)F)n2)c1 |
| 92 to 93 | C=CCN(C(=O)OCc1ccccc1)c1cc(F)c(-c2cccnc2)c(F)c1 |
| 150 to 151 | CC(CCl)NC(=O)c1c(Cl)cccc1[Si](C)(C)C (stereo unspecified) |
| 89 to 89.6 | COC(=O)/C(O)=C1/C(=O)c2ccc(OC)cc2CC1C (stereo unspecified) |
| 235 to 238 | CCc1[nH]n(-c2c(Cl)cc(Cl)cc2Cl)c2nc(Cc3cccc(OC)c3)nc(=O)c1-2 |
| 126 to 131 | CCOC(=O)N1C=CC(c2c(-c3ccccc3)nc3ccc(Cl)nn23)C=N1 (stereo unspecified) |
| 258 to 261 | CC(=O)n1c2ccc(O)cc2c2c3c(c(-c4ccccc4Cl)cc21)C(=O)NC3=O |
| 265 to 267 | COc1ccc(C=C2N=C(c3ccc([N+](=O)[O-])cc3)OC2=O)cc1OC |
| 117 to 119 | CCN(CC)CC(=O)N1CCn2c(c(-c3ccccc3)c3cc(Cl)ccc32)C1 |
| 57.2 to 58.3 | O=C(COCc1cccs1)C12CC3CC(CC(C3)C1)C2 |
| 175 to 176 | CCOc1cc2c(cc1OCC)C1(CCC(C(=O)O)(C(=O)O)CC1)N(C(=O)OCc1ccccc1)CC2 |
| 285 to 287 | COc1cc(Nc2c(C#N)cnc3cc4cc(OCCn5nccn5)c(OC)cc4cc23)c(Cl)cc1Cl |
| 201 to 203 | O=c1[nH]c(=O)n(C2CC(O)C(CO)O2)cc1-c1ccccn1 (stereo unspecified) |
| 246 | CS(=O)(=O)c1cccc(NC(=O)c2cnn3c(C(F)(F)F)cc(-c4ccc(C(F)(F)F)c(F)c4)nc23)c1 |
| 112 | CSC(N)=C(Cc1ccccc1)[N+](=O)[O-] |
| 193 to 195 | C[C@@H]1C[C@H](C)CN(S(=O)(=O)c2ccc(Cl)c(C(=O)NCCCC(=O)O)c2)C1 |
| 87 | COc1c(Cl)cc(NC(=O)OCCCl)c(OC)c1NC(=O)OCCCl |

| melting point [°C] | SMILES |
| --- | --- |
| 105 to 107 | CC(=O)OC(c1ccccc1S(N)(=O)=O)C(C)F (stereo unspecified) |
| 51 to 53 | CC(C)(C)OC(=O)/C(C#N)=C/c1cccc2ccccc12 |
| 193 to 194 | CC(C)(C)c1cc(C=O)c2c(c1O)CCCC2 |
| 220 | COc1ccc(C(O)(c2ccc3c(c2)C(c2cccc(Cl)c2)Nc2nnnn2-3)c2cncn2C)cc1 (stereo unspecified) |
| 55 to 56.5 | CC(C(=O)Oc1ccc([N+](=O)[O-])cc1)c1ccccc1 (stereo unspecified) |
| 170 to 172 | CC(=O)Oc1ccc(C=CC(=O)N(c2ccccc2)c2ccccc2)cc1[N+](=O)[O-] |
| 168 | CC(=O)OC1C(=O)N(c2nnc(C(C)(C)C)s2)C(=O)N1C (stereo unspecified) |
| 118 to 119 | S=C=Nc1ccc2nc(Oc3ccccc3)sc2c1 |
| 134 to 136 | CCCc1nc(CO)c(C)[nH]1 |
| 75 to 77 | CCOC(=O)C(C#N)(CCCN(C)CCc1ccc(C(=O)OC)cc1)c1ccc(OC)c(OC)c1 (stereo unspecified) |
| 204 to 205 | c1ccc(N(c2ccccc2)c2ccc(-c3ccc(-c4ccnc(CNc5ccc6ccccc6c5)n4)cc3)cc2)cc1 |
| 163 to 165 | CCCCc1oc2ccccc2c1C(=O)c1ccc2c(Br)c(OCC(=O)O)ccc2c1 |
| 211 to 213 | CN(C)S(=O)(=O)c1cc(N)c(N)c([N+](=O)[O-])c1 |
| 147 to 149 | O=C(O)c1cn(CCO)nc1[N+](=O)[O-] |
| 193 to 195 | N#Cc1cc(-c2ccoc2)c2ccc(COc3cc(F)cc(-c4cccnc4)c3)cc2n1 |
| 65 to 67 | CCCCCCCCCCCCCCCCC(NC(C)=O)(C(=O)OCC)C(=O)OCC |
| 137 to 139 | CCOC(=O)c1snc(-c2ccc(F)cc2)c1N |
| 119 | Cc1ccnc(N2CCN(CCCCC3Sc4ccccc4NC3=S)CC2)c1 (stereo unspecified) |
| > 300 | O=c1[nH]c(CO)nc2nc(O)cnc12 |
| 136 to 137 | CCn1ncc2c3onc(-c4cccc(F)c4)c3cnc21 |
| 103 to 106 | CSc1ccccc1C(=N)N1CCN(CCc2cc3c(cc2Cl)NC(=O)C3)CC1 |
| 58 to 60 | CCCc1c(OCC(C)CC(=O)NCCCCc2cccnc2)ccc(C(C)=O)c1O (stereo unspecified) |
| 117 to 120 | CCC(N1CCC(Oc2c(F)c(F)c(F)c(F)c2F)CC1)n1c(=O)[nH]c2ccccc21 (stereo unspecified) |

| melting point [°C] | SMILES |
| --- | --- |
| 96 to 97 | COc1cc(CCCC2OC(=O)NC2=O)ccc1OCc1csc(-c2ccccc2)n1 (stereo unspecified) |
| 140 to 143 | Cc1noc(NS(=O)(=O)c2ccccc2)c1Cl |
| 155 to 159 | CCCCc1oc2ccccc2c1C(=O)Nc1ccc2c(Br)c(OCC#N)ccc2c1 |
| 92.5 | CC(C)(C)C1=NN(c2ccc(S(=O)(=O)O)cc2)C(c2ccc(Cl)cc2)C1 (stereo unspecified) |
| 179 to 182 | Cc1cc(N)cc(C)c1Oc1ccc(O)c(Cc2ccc(F)cc2)c1 |
| 200 to 203 | CC1(C)OC(=O)Nc2ccc(-c3cc(F)cc(-c4ccsc4)c3)cc21 |
| 158 to 161 | COC(=O)c1ccc(NCc2ccc(Cl)c(Cl)c2)cn1 |
| 242 to 244 | N#Cc1cccc(C(=O)Nc2c(Cl)cncc2Cl)c1 |
| 169 to 170 | CCCCN(CCCC)c1ccc(C=CC=CC2=C(C#N)C(=C(C#N)C#N)OC2(C)C(F)(F)F)c(OC)c1 (stereo unspecified) |
| 114 to 115 | CS(=O)(=O)C(C(=O)OCc1ccccc1)(C(=O)OCc1ccccc1)N1C(=O)C(NC(=O)Cc2ccccc2)C1CN=[N+]=[N-] (stereo unspecified) |
| 174 to 176 | CC(=O)N1CCC(C(=NNc2ccccc2)c2ccc(Br)cc2F)CC1 |
| 117 to 120 | CC(C)(c1ccccc1)n1nnc(-c2ccccc2-c2ccc(CO)cc2)n1 |
| 113 to 114 | CCc1noc(NC(C)=O)c1Cl |
| 46 | CCCCCCn1ccc(=O)c(OCc2ccccc2)c1C |
| 94 to 95 | Cc1c(C)c2c(c(C)c1N)CC(C)(CN1CCC(CCO)CC1)O2 (stereo unspecified) |
| 111 to 113 | CC(=O)N1CCN2c3c(cccc3C3CCCC32)C1 (stereo unspecified) |
| 221 to 224 | Cc1cc(NC2=NCCN2)n(-c2cccc3ccccc23)n1 |
| 125 | O=C(O)CN(CCN(CC(=O)O)CC(=O)O)CCN(CC(=O)O)CC(=O)Nc1ccccc1 |
| 243 | N=C(NO)c1nc(-c2ccc(Cl)cc2)cc(C(F)(F)F)n1 |
| 94 to 96 | COc1ccc(-c2ccncc2)cc1 |
| 160 to 161 | COCn1ccnc1C(O)(c1ccc(C(F)(F)F)cc1)c1ccc(C(F)(F)F)cc1 |
| 94 to 95 | CN(O)C(=O)c1ccc(CCCCc2ccccc2C(=O)O)cc1 |

| SMILES | melting point [°C] |
| --- | --- |
| Brc1ccc(C(Br)Br)nc1 | 59 to 61 |
| CC1N=C(c2ccccc2)c2cc(Br)ccc2NC1=O (stereo unspecified) | 210 to 212 |
| C1=C(c2c[nH]c3ccccc23)CCN(CC2COc3ccc4ncccc4c3O2)C1 (stereo unspecified) | 217 |
